Data: US11339128B2 (Firmenich Incorporated, priority 2014, dated 2022)

Experiments:
[1] = target: T1, T1R2/T1R3 taste receptor (Homo sapiens, UniProt Q7RTX0+Q8TE23); assay: Receptor-based assay: sweetener EC50 enhancement ratio with and without test compound; type: cell-based; settings: for Sucrose Enhancement EC50 Ratio: sweetener sucrose
T1 sequence (Q8TE23 20-839): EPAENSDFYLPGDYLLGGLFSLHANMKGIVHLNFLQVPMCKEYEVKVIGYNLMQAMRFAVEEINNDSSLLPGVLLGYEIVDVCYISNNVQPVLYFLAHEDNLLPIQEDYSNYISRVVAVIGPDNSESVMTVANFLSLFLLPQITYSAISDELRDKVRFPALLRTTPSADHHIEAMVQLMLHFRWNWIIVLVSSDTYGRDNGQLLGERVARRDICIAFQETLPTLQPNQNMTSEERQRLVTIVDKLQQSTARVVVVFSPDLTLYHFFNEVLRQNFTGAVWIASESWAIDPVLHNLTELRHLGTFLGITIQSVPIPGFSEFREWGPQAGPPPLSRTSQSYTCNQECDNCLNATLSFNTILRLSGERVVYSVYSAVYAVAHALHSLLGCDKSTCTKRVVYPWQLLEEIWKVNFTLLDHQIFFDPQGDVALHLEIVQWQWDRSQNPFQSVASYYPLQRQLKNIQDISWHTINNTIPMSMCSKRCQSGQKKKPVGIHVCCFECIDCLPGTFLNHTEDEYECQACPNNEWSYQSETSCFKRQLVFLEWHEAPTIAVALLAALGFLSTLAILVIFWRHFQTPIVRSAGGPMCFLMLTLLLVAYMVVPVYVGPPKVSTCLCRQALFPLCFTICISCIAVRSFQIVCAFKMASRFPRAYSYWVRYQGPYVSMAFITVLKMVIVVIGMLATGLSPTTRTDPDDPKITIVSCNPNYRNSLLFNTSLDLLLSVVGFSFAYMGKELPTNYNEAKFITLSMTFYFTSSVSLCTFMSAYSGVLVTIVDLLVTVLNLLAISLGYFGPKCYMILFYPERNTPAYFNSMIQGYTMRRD
T1 sequence (Q7RTX0 21-852): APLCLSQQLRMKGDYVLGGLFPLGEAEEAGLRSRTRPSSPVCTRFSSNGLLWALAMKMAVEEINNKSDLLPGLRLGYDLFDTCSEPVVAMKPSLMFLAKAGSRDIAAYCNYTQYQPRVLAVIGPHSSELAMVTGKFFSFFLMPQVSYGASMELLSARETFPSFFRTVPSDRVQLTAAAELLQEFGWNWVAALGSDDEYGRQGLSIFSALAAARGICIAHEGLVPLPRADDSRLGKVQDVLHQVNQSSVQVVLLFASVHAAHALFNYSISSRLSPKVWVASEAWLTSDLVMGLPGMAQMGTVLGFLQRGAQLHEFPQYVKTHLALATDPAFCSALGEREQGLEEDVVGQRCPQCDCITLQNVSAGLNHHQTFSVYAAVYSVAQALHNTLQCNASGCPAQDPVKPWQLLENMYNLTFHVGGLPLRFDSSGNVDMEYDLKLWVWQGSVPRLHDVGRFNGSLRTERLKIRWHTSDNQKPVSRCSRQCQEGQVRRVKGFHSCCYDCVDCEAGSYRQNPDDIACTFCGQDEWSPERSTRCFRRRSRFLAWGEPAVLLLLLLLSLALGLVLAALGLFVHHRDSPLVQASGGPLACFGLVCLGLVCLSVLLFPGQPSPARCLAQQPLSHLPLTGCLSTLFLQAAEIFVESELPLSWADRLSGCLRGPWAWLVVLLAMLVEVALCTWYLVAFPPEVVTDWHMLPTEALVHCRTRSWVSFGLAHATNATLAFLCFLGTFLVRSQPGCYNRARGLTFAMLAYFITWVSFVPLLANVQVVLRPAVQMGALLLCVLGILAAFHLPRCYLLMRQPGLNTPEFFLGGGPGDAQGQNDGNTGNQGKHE
Method in brief: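 Sweetener (sucrose, sucralose, fructose) EC50 measured alone and with 1, 3, 10 or 50 μM test compound. Enhancement ratio = EC50 without/with compound; A = >1 to <10, B = 10–20, C = >20.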

[2] = Sensory paired-comparison sweetness test of sweetener (sucrose or high-fructose corn syrup) with test compound; type: in vivo, human; settings: test compound 10 ppm or less with 6% sucrose, low sodium buffer pH 7.1; sucrose-alone concentration of equivalent perceived sweetness
Experimental: Test samples containing either a sweetener (sucrose or high-fructose corn syrup) alone or in combination with a test compound were presented in pairs to a group of panelist who were asked to determine which of the samples was sweeter. Subjects refrained from eating or drinking (except water) for at least 1 hour prior to the test. Subjects rinsed with water several times to clean the mouth. The samples within a paired comparison test were presented in a randomized, counterbalanced order. Panelists had up to a 1 minute delay between taste tests to clear the mouth of any tastes. Binomial probability tables were used to determine the probability of the correct number of responses occurring for each test at alpha-0.05.
Stock solutions of test compounds were prepared at 1000× final concentration with ethanol to ensure dispersion in solution. Test compound samples including sucrose were prepared by diluting the stock solutions in a low sodium buffer (0.952 g of KCl, 5.444 g of Na2HPO4, and 0.952 g of KH2PO4 in deionized ultrafiltered water) at pH 7.1 and containing sucrose. Test compound samples including high fructose corn syrup were prepared by diluting the stock solutions in the low sodium buffer at pH 2.8 (using citric acid to adjust the pH) and containing high fructose corn syrup. Control samples were balanced to 0.1% ethanol final.
In samples containing the test compound, the test compound was present at a concentration of 10 ppm or less and the concentration of sucrose was 6%. This table indicates the sucrose-alone concentration having a perceived sweetness intensity equivalent to the sweetness intensity of the combination of test compound and sucrose. An “A” value indicates an equivalent sucrose concentration greater than 6% and less than 10%. A “B” value indicates an equivalent sucrose concentration of 10% or greater. […]

Compound: CCOCC(=O)N[C@H]1CC[C@H](Oc2cccc3nc(C)c(C(=O)O)c(N)c23)CC1 [Compound 300, 4-Amino-5-((trans-4-(2-ethoxyacetamido)cyclohexyl)oxy)-2-methylquinoline-3-carboxylic acid]
- Sucrose Enhancement EC50 Ratio ([1]; 1 μM test compound): B (an enhancement ratio from 10 to 20)
- Sucrose Enhancement EC50 Ratio ([1]; 3 μM test compound): C (an enhancement ratio greater than 20)
- Sucralose Enhancement EC50 Ratio ([1]; 10 μM test compound, sweetener sucralose): B (an enhancement ratio from 10 to 20)
- Sucrose Enhancement EC50 Ratio ([1]; 10 μM test compound): C (an enhancement ratio greater than 20)
- Equivalent Sucrose Conc. [2]: B (an equivalent sucrose concentration of 10% or greater)
- melting point: 204 to 206 °C
